Values quoted from earlier work, collected in patent US20020035037A1, “CONTROL OF SCLEROTIUM CEPIVORUM IN ALLIUM PLANTS” (priority 1991, published 2002).

Test system: Sclerotium cepivorum
Settings: iprodione 125 g/kg seed as seed treatment; procymidon 4-6 kg/ha as soil treatment; particularly with heavy infestation

Compound | effectiveness of control of Sclerotium cepivorum
CC12CC1(C)C(=O)N(c1cc(Cl)cc(Cl)c1)C2=O (centres unmarked) [procymidon] | not effective
CC(C)NC(=O)N1CC(=O)N(c2cc(Cl)cc(Cl)c2)C1=O [iprodione] | not effective
